Holding throughout (format): cell-based
The test system of assay [1] is IFN-γ. Nature of the assay: IFN-γ production by PHA-stimulated human PBMC (OptEIA human IFN-g ELISA). To be noted: PHA-stimulated human PBMC, 48 hours; column C; read-out: IC50 (IFNγ). The method, boiled down:
(§1)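 Supernatant cytokine levels are read by bead-based Luminex or sandwich ELISA after 48 h culture of PHA-stimulated (2 μg/ml) human PBMC with compound. Cells are seeded at 1×10^5 per well; IC50 values derive from semilogarithmic dilution series.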
Background: ELISA stands for enzyme-linked immunosorbent assay.

Assay [2] relates to IL-17FF. Nature of the assay: IL-17FF production by PHA-stimulated human PBMC (human IL-17F ELI-Pair). Conditions: PHA-stimulated human PBMC, 48 hours; column B; read-out: IC50 (IL-17FF). The essentials: as §1
In assay [3] the test system is PBMC from healthy human donors. Nature of the assay: T cell proliferation assay (PHA-stimulated human PBMC, BrdU ELISA). Conditions: PHA-stimulated human PBMC, 48 hours, column D, read-out: IC50 (Tcell proliferation). The method, boiled down:
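Healthy-donor PBMC isolated on Ficoll, seeded at 1×10⁵ cells/well in RPMI with 10% dialysed FCS, stimulated with 2 μg/ml PHA in presence of test compound. Proliferation read after 48 hours by BrdU-incorporation ELISA.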
(In general: Incorporation of labelled thymidine or its analogues reports DNA synthesis.)

Turning to `O=C(NCc1ccccc1C(F)(F)F)c1c(-c2c(F)cccc2Cl)noc1-c1cnn(-c2ccccc2F)c1C(F)(F)F` [Example I-23, 3-(2-chloro-6-fluorophenyl)-5-(1-(2-fluorophenyl)-5-(trifluoromethyl)-1H-pyrazol-4-yl)-N-(2-(trifluoromethyl)ben-zyl)isoxazole-4-carboxamide], the values for the IC50 in assay [1], in assay [2] and in assay [3] were 100 to 1000 nM, 1000 to 10000 nM and 1000 to 10000 nM, respectively.

For the compound `CCOC(=O)c1c(-c2onc(-c3c(F)cccc3Cl)c2C(=O)OC)cnn1-c1ccc(F)cc1` [Example I-26, methyl 3-(2-chloro-6-fluorophenyl)-5-(5-(ethoxycarbonyl)-1-(4-fluorophenyl)-1H-pyrazol-4-yl)isoxazole-4-carboxylate], the IC50 in assay [1], in assay [2] and in assay [3] was 1000 to 10000 nM in each case.

For the compound `COC(=O)c1c(-c2c(F)cccc2Cl)noc1-c1cnn(CC(C)C)c1C(F)(F)F` [Example I-28], the IC50 is 10 to 100 nM in assay [1], 10 to 100 nM in assay [2] and 100 to 1000 nM in assay [3].

For the compound `CCOC(=O)c1c(-c2onc(-c3c(F)cccc3Cl)c2C(=O)OC)cnn1-c1ccc(F)cc1F` [Example I-35, methyl 3-(2-chloro-6-fluorophenyl)-5-(1-(2,4-difluorophenyl)-5-(ethoxycarbonyl)-1H-pyrazol-4-yl)isoxazole-4-carboxylate], the IC50 in assay [1], in assay [2] and in assay [3] was 100 to 1000 nM each time.

As to `CCOC(=O)c1c(-c2onc(-c3c(F)cccc3Cl)c2C(=O)OC)cnn1-c1ccccc1F` [Example I-41, methyl 3-(2-chloro-6-phenyl)-5-(5-(ethoxycarbonyl)-1-(2-fluorophenyl)-1H-pyrazol-4-yl)isoxazole-4-carboxylate], the IC50 in assay [1], in assay [2] and in assay [3] was 100 to 1000 nM each time.

For the compound `CCOC(=O)c1c(-c2c(F)cccc2Cl)noc1-c1cnn(-c2ccccc2F)c1C(F)(F)F` [Example I-42, Ethyl 3-(2-chloro-6-fluorophenyl)-5-[1-(2-fluorophenyl)-5-(trifluoromethyl)-1H-pyrazol-4-yl]isoxazole-4-carboxylate], the IC50 was below 10 nM in assay [1], 10 to 100 nM in assay [2] and 10 to 100 nM in assay [3].

`CC(C)OC(=O)c1c(-c2c(F)cccc2Cl)noc1-c1cnn(-c2ccccc2F)c1C(F)(F)F` [Example I-43, i-Propyl 3-(2-chloro-6-fluorophenyl)-5-[1-(2-fluorophenyl)-5-(trifluoromethyl)-1H-pyrazol-4-yl]isoxazole-4-carboxylate]: the IC50 in assay [1] lay within 10 to 100 nM; in assay [2], 100 to 1000 nM; in assay [3], 10 to 100 nM.

For `COC(=O)c1c(-c2c(F)cccc2Cl)noc1-c1cnn(-c2c(F)c(F)cc(F)c2F)c1C(F)(F)F` [Example I-47, methyl 3-(2-chloro-6-fluorophenyl)-5-(1-(2,3,5,6-tetrafluorophenyl)-5-(trifluoromethyl)-1H-pyrazol-4-yl)isoxale-4-carboxylate], the IC50 in assay [1], in assay [2] and in assay [3] was 100 to 1000 nM in each case.

With `N#Cc1c(-c2c(F)cccc2Cl)noc1-c1cnn(-c2cccc(Cl)c2)c1C(F)(F)F` [Example I-49, 3-(2-chloro-6-fluorophenyl)-5-(1-(3-chlorophenyl)-5-(trifluoromethyl)-1H-pyrazol-4-yl)isoxazole-4-carbonitrile], the IC50 in assay [1], in assay [2] and in assay [3] was 100 to 1000 nM each time.

Take `COC(=O)c1c(-c2c(F)cccc2Cl)noc1-c1cnn(-c2cc(F)cc(F)c2)c1C(F)(F)F` [Example I-50, methyl 3-(2-chloro-6-fluorophenyl)-5-(1-(3,5-difluorophenyl)-5-(trifluoromethyl)-1H-pyrazol-4-yl)isoxazole-4-carboxylate]: the IC50 in assay [1], in assay [2] and in assay [3] was below 10 nM each time.

For `CNC(=O)c1c(-c2c(F)cccc2Cl)noc1-c1cnn(-c2ccc(F)cc2)c1C(F)(F)F` [Example I-55, 3-(2-chloro-6-fluorophenyl)-5-(1-(4-fluorophenyl)-5-(trifluoromethyl)-1H-pyrazol-4-yl)-N-methylisoxazole-4-carboxamide], the IC50 in assay [1], in assay [2] and in assay [3] was 100 to 1000 nM in each case.

Regarding `CNC(=O)c1c(-c2c(F)cccc2Cl)noc1-c1cnn(-c2ccccc2)c1C(F)(F)F` [Example I-59, 3-(2-chloro-6-fluorophenyl)-N-methyl-5-(1-phenyl-5-(trifluoromethyl)-1H-pyrazol-4-yl)isoxazole-4-carboxamide], the IC50 in assay [1], in assay [2] and in assay [3] was 100 to 1000 nM throughout.

For `COC(=O)c1c(-c2ccccc2)noc1-c1cnn(-c2ccccc2F)c1C(F)(F)F` [Example I-61, methyl 5-(1-(2-fluorophenyl)-5-(trifluoromethyl)-1H-pyrazol-4-yl)-3-phenylisoxazole-4-carboxylate], the IC50 in assay [1], in assay [2] and in assay [3] was 1000 to 10000 nM each time.

Consider `COC(=O)c1c(-c2c(F)cccc2Cl)noc1-c1cnn(CC(F)(F)F)c1C(F)(F)F` [Example I-65, methyl 3-(2-chloro-6-fluorophenyl)-5-(1-(2,2,2-trifluoroethyl)-5-(trifluoromethyl)-1H-pyrazol-4-yl)isoxazole-4-carboxylate], for which the IC50 in assay [1], in assay [2] and in assay [3] was 10 to 100 nM in each case.

In the case of `COC(=O)c1c(-c2c(F)cccc2Cl)noc1-c1cnn(C(C)C)c1C(F)(F)F` [Example I-66, methyl 3-(2-chloro-6-fluorophenyl)-5-(1-isopropyl-5-(trifluoromethyl)-1H-pyrazol-4-yl)isoxazole-4-carboxylate], the results for the IC50 in assay [1], in assay [2] and in assay [3] were 100 to 1000 nM, 1000 to 10000 nM and 1000 to 10000 nM, respectively.

With `COC(=O)c1c(-c2c(F)cccc2Cl)noc1-c1cnn(-c2cc(Cl)cc(Cl)c2)c1C(F)(F)F` [Example I-68, methyl 3-(2-chloro-6-fluorophenyl)-5-(1-(3,5-dichlorophenyl)-5-(trifluoromethyl)-1H-pyrazol-4-yl)isoxazole-4-carboxylate], the IC50 in assay [1], in assay [2] and in assay [3] was 10 to 100 nM each time.

`COC(=O)c1c(-c2c(F)cccc2Cl)noc1-c1cnn(-c2c(Cl)cccc2Cl)c1C(F)(F)F` [Example I-70, methyl 3-(2-chloro-6-fluorophenyl)-5-(1-(2,6-dichlorophenyl)-5-(trifluoromethyl)-1H-pyrazol-4-yl)isoxazole-4-carboxylate]: the IC50 in assay [1], in assay [2] and in assay [3] was 100 to 1000 nM each time.

Consider `CNC(=S)c1c(-c2c(F)cccc2Cl)noc1-c1cnn(-c2ccc(F)cc2)c1C(F)(F)F` [Example I-76, 3-(2-chloro-6-fluorophenyl)-5-(1-(4-fluorophenyl)-5-(trifluoromethyl)-1H-pyrazol-4-yl)-N-methylisoxazole-4-carbothioamide], for which the IC50 in assay [1] lay in the range of 100 to 1000 nM; in assay [2] it was 1000 to 10000 nM; in assay [3], 1000 to 10000 nM.

For the origin of these results see patent publication US8354436B2 (4SC Discovery GmbH, priority 2011, dated 2013).
